Reference: patent US5594144A, “Tropolone derivatives and pharmaceutical composition thereof for preventing and treating ischemic diseases” (The Upjohn Company, priority 1990, dated 1997)

How the values were obtained:
[1] = test system: Brain microsomal fractions; assay: in vitro Anti-lipid peroxidation effect (TBAR production, Fe3+-ADP/NADPH); type: biochemical, rat (SD strain, male)
Experimental: 1. in vitro Anti-lipid peroxidation effect
Brain microsomal fractions were prepared from male rats of SD strain, and a portion (0.2 mg protein) was incubated at 37° C. for 15 minutes with a mixture of Fe^3+ (0.1 mM)--ADP (0.5 mM) in the presence or absence of the test compound, in final volume of 1 ml of 10 mM HEPES, 150 mM KCl, 0.2 mM NADPH, pH 7.4. After incubation, 1.5 ml of TCA-TBA-HCl reagent (16.7% trichloroacetic acid, 0.4% thiobarbituric acid, 0.278N hydrochloric acid) was added and the reaction mixture was heated in a boiling water for 15 minutes. After cooling in ice-bath, the reaction mixture was centrifuged, and the absorbance of the supernatant at 535 nm was measured. The amount of thiobarbituric acid reactive substance (TBAR) was obtained by calculation using an extinction coefficient of 1.56×10^5 […]. […] The results are shown in Table 1A for compounds of the formulas IA, IB, and IC, respectively. The compounds with highest inhibition rate have the greatest anti-lipid peroxidation effect.

[2] = test system: pig right coronary artery; assay: in vitro Ca-antagonism (high K+ induced 45Ca-influx); type: cell-based; settings: Sus scrofa, K+ 75 mM
Experimental: 2. in vitro Ca-antagonism
A strip of pig right coronary artery was depolarized with high K^+ (75 mM) for 30 minutes to induce voltage dependent ^45 Ca-influx. The extracellular ^45 Ca was chelated by adding EGTA and removed by washing, then the strip was lysed at 100° C. ^45 Ca in this lysate was measured as intracellular ^45 Ca by a scintillation counter. The concentration of the test compound was 10^-7, 10^-6, 10^-5 M, and applied until depolarization by K^+ was completed. Ratio of inhibition at various concentrations of the test compounds for increasing the intracellular ^45 Ca by K^+ was determined. The compound with high inhibition ratio has strong Ca-antagonism.

SMILES	Anti-Lipid Peroxidation (% inhibition) 10 μM [1]	Anti-Lipid Peroxidation (% inhibition) 50 μM [1]	inhibition at 10 µM [2]
COc1ccc(C(c2ccc(Cl)cc2)N2CCN(Cc3ccc(C(C)C)cc(OC)c3=O)CC2)cc1 (stereo not drawn) [Compound 10A, 7-[4-(4-chloro-4'-methoxybenzhydryl)piperazin-1-methyl]-4-isopropyl-2-methoxy-2,4,6-cycloheptatrien-1-one]	24.0%	81.6%	53%
CC(C)c1ccc(CN2CCN(C(c3ccc(F)cc3)c3ccc(F)cc3)CC2)c(=O)c(NCCNc2ncccn2)c1 [Compound 10C, 7-[4-(4,4'-difluorobenzhydryl)piperazino-1-methyl]-4-isopropyl-2-[N-2-(2-pyrimidylamino)ethylamino]-2,4,6-cycloheptatrien-1-one]	46.3%	92.5%	65%
CC(C)c1ccc(CN2CCN(C(c3ccc(F)cc3)c3ccc(F)cc3)CC2)c(=O)c(NCCc2ccccn2)c1 [Compound 11C, 7-[4-(4,4'-difluorobenzhydryl)piperazino-1-methyl]-4-isopropyl-2-[N-2-(2-pyridyl)ethylamino]-2,4,6-cycloheptatrien-1-one]	32.2%	89.8%	62%
CCOc1cc(C(C)C)ccc(CN2CCN(C(c3ccc(F)cc3)c3ccc(F)cc3)CC2)c1=O [Compound 12A, 7-[4-(4,4'-difluorobenzhydryl)piperazino-1-methyl]-2-ethoxy-4-isopropyl-2,4,6-cycloheptatrien-1-one]	21.4%	50.4%	72%
CC(C)c1ccc(CN2CCN(C(c3ccc(F)cc3)c3ccc(F)cc3)CC2)c(=O)c(NCc2ccccn2)c1 [Compound 12C, 7-[4-(4,4'-difluorobenzhydryl)piperazino-1-methyl]-4-isopropyl-2-(N-2-pyridylmethylamino)-2,4,6-cycloheptatrien-1-one]	86.4%	89.3%	47%
CCCCOc1cc(C(C)C)ccc(CN2CCN(C(c3ccc(F)cc3)c3ccc(F)cc3)CC2)c1=O [Compound 13A, 2-butoxy-7-[4-(4,4'-difluorobenzhydryl)piperazino-1-methyl]-4-isopropyl-2,4,6-cycloheptatrien-1-one]	23.1%	27.4%	38%
CC(C)c1ccc(CN2CCN(C(c3ccc(F)cc3)c3ccc(F)cc3)CC2)c(=O)c(NCCO)c1 [Compound 13C, 7-[4-(4,4'-difluorobenzhydryl)piperazino-1-methyl]-2-(N-2-hydroxyethylamino)-4-isopropyl-2,4,6-cycloheptatrien-1-one]	36.9%	89.5%	90%
COCCNc1cc(C(C)C)ccc(CN2CCN(C(c3ccc(F)cc3)c3ccc(F)cc3)CC2)c1=O [Compound 14C, 7-[4-(4,4'-difluorobenzhydryl)piperazino-1-methyl]-4-isopropyl-2-(N-2-methoxyethylamino)-2,4,6-cycloheptatrien-1-one]	27.0%	90.4%	71%
CC(C)c1ccc(CN2CCN(C(c3ccc(F)cc3)c3ccc(F)cc3)CC2)c(=O)c(OCc2ccccc2)c1 [Compound 15A, 2-benzyloxy-7-[4-(4,4'-difluorobenzhydryl)piperazino-1-methyl]-4-isopropyl-2,4,6-cycloheptatrien-1-one]	22.4%	29.0%	20%
COC(=O)CNc1cc(C(C)C)ccc(CN2CCN(C(c3ccc(F)cc3)c3ccc(F)cc3)CC2)c1=O [Compound 15C, methyl 2-{N-7-[4-(4,4'-difluorobenzhydryl)piperazino-1-methyl]-4-isopropyl-1-oxo-2,4,6-cycloheptatrien-2-ylamino}acetate]	38.6%	79.8%	92%
COc1ccc(CCOc2cc(C(C)C)ccc(CN3CCN(C(c4ccc(F)cc4)c4ccc(F)cc4)CC3)c2=O)cc1OC [Compound 16A, 7-[4-(4,4'-difluorobenzhydryl)piperazino-1-methyl]-2-[2-(3,4-dimethoxyphenyl)ethoxy]-4-isopropyl-2,4,6-cycloheptatrien-1-one]	19.1%	19.1%	52%
CCOC(=O)CCNc1cc(C(C)C)ccc(CN2CCN(C(c3ccc(F)cc3)c3ccc(F)cc3)CC2)c1=O [Compound 16C, ethyl 3-{N-7-[4-(4,4'-difluorobenzhydryl)piperazino-1-methyl]-4-isopropyl-1-oxo-2,4,6-cycloheptatrien-2-ylamino}propionate]	29.1%	58.0%	47%
CC(C)c1ccc(CN2CCN(C(c3ccc(F)cc3)c3ccc(F)cc3)CC2)c(=O)c(N2CCCCC2)c1 [Compound 17C, 7-[4-(4,4'-difluorobenzhydryl)piperazino-1-methyl]-4-isopropyl-2-piperidino-2,4,6-cycloheptatrien-1-one]	32.4%	44.1%	53%
CC(C)c1ccc(CN2CCN(C(c3ccc(F)cc3)c3ccc(F)cc3)CC2)c(=O)c(N2CCOCC2)c1 [Compound 18C, 7-[4-(4,4'-difluorobenzhydryl)piperazino-1-methyl]-4-isopropyl-2-morpholino-2,4,6-cycloheptatrien-1-one]	26.7%	41.2%	84%
CC(C)c1ccc(CN2CCN(C(c3ccc(F)cc3)c3ccc(F)cc3)CC2)c(=O)c(N2CCNCC2)c1 [Compound 19C, 7-[4-(4,4'-difluorobenzhydryl)piperazino-1-methyl]-4-isopropyl-2-(1-piperazino)-2,4,6-cycloheptatrien-1-one]	30.1%	89.1%	62%
CCNc1cccnc1N1CCN(c2cc(C(C)C)ccc(CN3CCN(C(c4ccc(F)cc4)c4ccc(F)cc4)CC3)c2=O)CC1 [Compound 20C, 7-[4-(4,4'-difluorobenzhydryl)piperazino-1-methyl]-2-[4-(3-ethylamino-2-pyridyl)piperazino]-4-isopropyl-2,4,6-cycloheptatrien-1-one]	91.6%	93.8%	30%
COc1cc(C(C)C)ccc(CN2C(C)CN(C(c3ccc(F)cc3)c3ccc(F)cc3)CC2C)c1=O (stereo not drawn) [Compound 21C, 7-[4-(4,4'-difluorobenzhydryl)-2,6-dimethylpiperazino-1-methyl]-4-isopropyl-2-methoxy-2,4,6-cycloheptatrien-1-one]	47.8%	89.9%	42%
COc1cc(C(C)C)ccc(CN2CCN(C(c3ccc(F)cc3)c3ccc(F)cc3)CC2C)c1=O (stereo not drawn) [Compound 22C, 7-[4-(4,4'-difluorobenzhydryl)-2-methylpiperazino-1-methyl]-4-isopropyl-2-methoxy-2,4,6-cycloheptatrien-1-one]	32.8%	88.7%	66%
COc1cc(C(C)C)ccc(CN2CCCN(C(c3ccc(F)cc3)c3ccc(F)cc3)CC2)c1=O [Compound 23C, 7-[4-(4,4'-difluorobenzhydryl)hexahydro-1H-1,4-diazepin-1-ylmethyl]-4-isopropyl-2-methoxy-2,4,6-cycloheptatrien-1-one]	21.6%	90.7%	86%
